{"source": "patent US7119062B1", "about": "“Methods and compositions for improved articular surgery using collagen” (Neucoll, Inc., priority 2001, dated 2006)", "key": {"[1]": {"conditions": "adults; cited from earlier work"}, "research monkeys": {"tested_on": "research monkeys", "conditions": "cited from earlier work"}, "[2]": {"conditions": "cited from earlier work"}, "mice": {"tested_on": "mice", "conditions": "cited from earlier work"}, "[3]": {"conditions": "cited from earlier work", "remark": "listed apart in the source"}, "[4]": {"conditions": "standard mutagenicity and clastogenicity assays; cited from earlier work"}, "[5]": {"assay": "Anesthetic effect of lidocaine in intra-articular collagen injections", "format": "in vivo", "conditions": "1 mL intra-articular injections of collagen formulation with 0.3% lidocaine"}, "[6]": {"conditions": "in vivo"}}, "note": "Like-named read-outs stand apart in the source and are kept apart here."}
{"compound": "CCCCN1CCCCC1C(=O)Nc1c(C)cccc1C", "note": "(stereo not shown) [bupivacaine]", "values": [{"measurement": "half life", "setting": "[1]", "value": "approximately 3.5 hours"}, {"measurement": "single dose that produced seizures", "setting": "research monkeys", "value": 4.4, "unit": "mg/kg"}, {"measurement": "maximum dose", "setting": "[2]; over a 24 hour period", "value": 400, "unit": "mg"}, {"measurement": "therapeutic apparently safe dose", "setting": "[2]; single bolus", "value": "approximately 225 mg"}, {"measurement": "LD50", "setting": "mice; intravenous", "value": "6 to 8", "unit": "mg/kg"}, {"measurement": "LD50", "setting": "mice; subcutaneous", "value": "38 to 54", "unit": "mg/kg"}, {"measurement": "change in VAS pain scores at 1 hour", "setting": "[3]; 12.5 mg intra-articular, knees of osteoarthritis patients, 1 hour post-administration", "value": "statistically significant (p=0.007) fall"}, {"measurement": "effect on VAS pain scores after 1 hour", "setting": "[3]; 12.5 mg intra-articular, knees of osteoarthritis patients, after 1 hour", "value": "no significant effects"}, {"measurement": "duration of analgesia", "setting": "[3]; intra-articular injection", "value": "2 to 12", "unit": "h"}, {"measurement": "intra-articular dose that produces analgesia of the joint", "setting": "[3]; intra-articular", "value": "approximately 10 mg"}, {"measurement": "duration of pain relief", "setting": "[3]; local anesthetic injected into the operated joint at the end of arthroscopy", "value": "about 6 hours"}]}
{"compound": "CCCCN1CCCC[C@H]1C(=O)Nc1c(C)cccc1C", "note": "[levobupivacaine]", "values": [{"measurement": "genotoxicity", "setting": "[4]", "value": "non-genotoxic"}]}
{"compound": "CCN(CC)CC(=O)Nc1c(C)cccc1C", "note": "[lidocaine]", "values": [{"measurement": "duration of anesthetic effects of lidocaine", "setting": "[5]", "value": "less than an hour"}, {"measurement": "duration of anesthetic effects of lidocaine, in most cases", "setting": "[5]; in most cases", "value": "less than 10 minutes"}, {"measurement": "dosage required to achieve the same clinical efficacy as bupivacaine", "setting": "[3]; equivalent indications, relative to bupivacaine", "value": "2 to 10", "unit": "times"}]}
{"compound": "collagen", "values": [{"measurement": "time collagen remains in the knee joints", "setting": "[6]", "value": "up to 8 weeks"}]}
